Read-outs that look alike come from different tables or passages of the source.
Legend:
kinase Lyn b = kinase Lyn b (Homo sapiens, UniProt P07948); assay: Lyn b kinase inhibition; format: biochemical
[1] = system: JAK kinases (JAK1 and JAK3); assay: JAK inhibition: IL-4-stimulated CD23 upregulation in human Ramos B-cells, FACS; format: cell-based; settings: IL-4 stimulated Ramos B-cells, read-out: IC50, inhibition of JAK kinases in cellular assay
Experimental: JAK inhibition was tested in human Ramos B-cells activated with IL-4. Twenty to 24 hours post stimulation, the cells are stained for upregulation of CD23 and analyzed by FACS. Stimulation of the B-cells with IL-4 leads to the activation of the JAK/STAT pathway through phosphorylation of the JAK kinase JAK1 and JAK3, which in turn phosphorylate and activate transcription of factor […].
For the assay, human Ramos B-cells (ATCC, Catalog No. CRL-1596) are cultured in RPMI 1640 medium (Cellgro, Catalog No. 10-040-CM) containing 10% fetal bovine serum (JRH, Catalog No. 12106-500M) according to the propagation protocol supplied with the cells, and maintained at a density of approximately 3.5×10^5 cells/ml. The day before the assay, the cells are diluted to 3.5×10^5 cells/ml to insure they are in the logarithmic growth phase. The cells are spun down, and suspended in RPMI 1640 medium containing 5% fetal bovine serum to a density of 3.5×10^4 cells/ml and aliquots dispensed into a 96-well tissue culture plate. Cells are incubated with test compound (dissolved in DMSO) or DMSO (control) for 1 hr at 37° C. and then stimulated with IL-4 (Pepotech, Catalog No. 200-04) for 20-24 hours (final concentration is 50 Units/ml). Cells are then spun down, stained with anti-CD23-PE antibody (BD Pharmigen, Catalog No. 555711) and analyzed by FACS.

Lck kinase = Lck kinase (Homo sapiens, UniProt P06239); assay: Lck kinase inhibition; format: biochemical
Syk kinase = Syk kinase (Homo sapiens, UniProt P43405); assay: cell-based Syk assay; settings: read-out: IC50, inhibition of Syk kinase
Axl kinase = target: T1, Axl kinase (Homo sapiens, UniProt P30530); assay: Phospho-Akt in-cell Western assay (Axl antibody cross-linking, Hela cells); format: cell-based; settings: phospho-Akt readout, read-out: IC50, inhibition of Axl kinase
T1 construct: endogenous in cells; host or cells: HeLa cells
T1 sequence (P30530 26-894): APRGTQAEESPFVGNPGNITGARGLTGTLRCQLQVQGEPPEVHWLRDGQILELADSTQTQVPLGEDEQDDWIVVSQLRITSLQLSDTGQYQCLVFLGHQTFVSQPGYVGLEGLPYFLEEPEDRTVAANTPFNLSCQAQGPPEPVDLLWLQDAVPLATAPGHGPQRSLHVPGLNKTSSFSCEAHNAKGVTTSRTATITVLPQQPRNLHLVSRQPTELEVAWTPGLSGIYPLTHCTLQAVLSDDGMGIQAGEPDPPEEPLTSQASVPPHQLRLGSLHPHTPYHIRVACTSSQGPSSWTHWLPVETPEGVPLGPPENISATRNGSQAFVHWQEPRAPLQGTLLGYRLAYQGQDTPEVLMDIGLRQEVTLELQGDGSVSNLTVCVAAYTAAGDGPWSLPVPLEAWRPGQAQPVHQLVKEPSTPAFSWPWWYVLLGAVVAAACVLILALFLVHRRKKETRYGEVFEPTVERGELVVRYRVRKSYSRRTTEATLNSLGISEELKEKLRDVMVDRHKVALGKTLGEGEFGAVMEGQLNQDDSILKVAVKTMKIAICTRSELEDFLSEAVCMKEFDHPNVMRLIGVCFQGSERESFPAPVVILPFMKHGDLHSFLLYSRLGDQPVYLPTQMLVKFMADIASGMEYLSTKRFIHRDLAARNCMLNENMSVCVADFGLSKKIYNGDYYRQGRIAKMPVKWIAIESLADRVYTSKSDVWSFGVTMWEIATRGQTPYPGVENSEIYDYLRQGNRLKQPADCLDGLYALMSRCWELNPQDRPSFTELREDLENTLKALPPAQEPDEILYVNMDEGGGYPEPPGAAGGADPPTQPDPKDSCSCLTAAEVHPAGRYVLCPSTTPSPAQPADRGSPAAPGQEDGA
How it was run: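 HeLa cells were starved 24 h in 0.5% FCS with 500 ng/mL Axl/Fc, pretreated with compound 1 h at 37 °C, then stimulated 5 min by cross-linked anti-Axl antibodies. Phospho-Akt was detected by in-cell chemiluminescent immunoassay and normalized to crystal violet cell number at 590 nm.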

tumor cell lines = settings: cited from earlier work; for antiproliferative activity against tumor cell types: in vitro assays, variety of tumor cell lines

Sequence of Lck kinase (P06239 whole entry): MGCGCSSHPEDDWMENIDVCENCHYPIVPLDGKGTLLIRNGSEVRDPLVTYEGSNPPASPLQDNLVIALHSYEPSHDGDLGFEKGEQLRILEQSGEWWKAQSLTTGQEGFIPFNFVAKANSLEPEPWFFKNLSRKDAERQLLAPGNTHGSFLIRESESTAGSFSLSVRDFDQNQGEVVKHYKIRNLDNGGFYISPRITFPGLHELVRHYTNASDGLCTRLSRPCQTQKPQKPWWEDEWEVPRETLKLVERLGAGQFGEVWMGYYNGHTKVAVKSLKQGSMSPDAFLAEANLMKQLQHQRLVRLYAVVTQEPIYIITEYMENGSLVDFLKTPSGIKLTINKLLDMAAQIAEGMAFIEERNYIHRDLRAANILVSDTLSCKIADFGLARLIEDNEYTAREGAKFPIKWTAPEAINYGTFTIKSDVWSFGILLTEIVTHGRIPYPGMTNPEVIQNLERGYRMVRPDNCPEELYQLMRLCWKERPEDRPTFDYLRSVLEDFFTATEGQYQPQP
Sequence of kinase Lyn b (P07948 1-491 isoform P07948-2): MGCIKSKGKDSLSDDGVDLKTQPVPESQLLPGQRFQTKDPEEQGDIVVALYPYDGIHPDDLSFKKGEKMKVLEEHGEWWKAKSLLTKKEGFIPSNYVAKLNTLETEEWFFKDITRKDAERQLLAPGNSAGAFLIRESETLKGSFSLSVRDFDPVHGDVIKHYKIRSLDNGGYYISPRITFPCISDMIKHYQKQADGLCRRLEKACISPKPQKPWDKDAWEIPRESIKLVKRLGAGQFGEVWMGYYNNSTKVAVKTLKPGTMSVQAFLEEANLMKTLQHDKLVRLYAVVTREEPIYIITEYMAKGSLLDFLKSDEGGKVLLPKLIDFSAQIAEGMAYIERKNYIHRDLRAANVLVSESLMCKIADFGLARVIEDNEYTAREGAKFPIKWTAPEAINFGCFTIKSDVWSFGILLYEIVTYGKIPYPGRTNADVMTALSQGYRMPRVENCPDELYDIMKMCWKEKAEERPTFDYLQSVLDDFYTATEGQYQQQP

CNC(=O)COc1cccc(Nc2nc(NC3C4C=CC(C4)C3C(N)=O)c3nc[nH]c3n2)c1 (racemic) [Compound 104]
IC50 (kinase Lyn b): < 1000 nM

NC(=O)C1C2C=CC(C2)C1Nc1nc(Nc2ccc3c(c2)OCC(=O)N3)nc2[nH]cnc12 (racemic) [Compound 107, Racemic-(2-exo,3-exo)-N6-(3-aminocarbonylbicyclo[2.2. 1]hept-5-en-2-yl)-N2-(3,4-dihydro-3-oxo-2H-1,4-benzoxazin-7-yl)-1H-purine-2,6-diamine]
IC50 (kinase Lyn b): < 1000 nM

CCOc1cccc(Nc2nc(NC3C4C=CC(C4)C3C(N)=O)c3nc[nH]c3n2)c1 (racemic) [Compound 131, Racemic-(2-exo,3-exo)-N6-(3-aminocarbonylbicyclo[2.2. 1]hept-5-en-2-yl)-N2-(3-ethoxy)phenyl-1H-purine-2,6-diamine]
IC50 (kinase Lyn b): < 1000 nM

Cc1ccc(Nc2nc(NC3C4C=CC(C4)C3C(N)=O)c3nc[nH]c3n2)cc1F (racemic) [Compound 134, Racemic-(2-exo,3-exo)-N6-(3-aminocarbonylbicyclo[2.2. 1]hept-5-en-2-yl)-N2-(3-fluoro-4-methy)phenyl-1H-purine-2,6-diamine]
IC50 (kinase Lyn b): < 1000 nM

NC(=O)C1C2C=CC(C2)C1Nc1nc(Nc2cccc3[nH]ccc23)nc2[nH]cnc12 (racemic) [Compound 135, Racemic-(2-exo,3-exo)-N6-(3-aminocarbonylbicyclo[2.2. 1]hept-5-en-2-yl)-N2-(1H-indol-4-yl)-1H-purine-2,6-diamine]
IC50 [1]: > 10 µM | IC50 (Lck kinase): < 5 µM

COc1ccccc1Nc1nc(NC2C3C=CC(C3)C2C(N)=O)c2nc[nH]c2n1 (racemic) [Compound 136, Racemic-(2-exo,3-exo-)-N6-(3-aminocarbonylbicyclo[2.2. 1]hept-5-en-2-yl)-N2-(2-methoxy)phenyl-1H-purine-2,6-diamine]
IC50 (Lck kinase): < 10 µM | IC50 (kinase Lyn b): > 10000 nM | IC50 (Syk kinase): < 10 µM

Cc1cccc(Nc2nc(NC3CC4CCC3C4)c3nc[nH]c3n2)c1 (racemic) [Compound 151, Racemic-(2-exo)-N6-(bicyclo[2.2.1]hept-2-yl)-N2-(3-methyl)phenyl-1H-purine-2,6-diamine]
IC50 (Lck kinase): < 5 µM | IC50 (Syk kinase): < 10 µM

NC(=O)c1c[nH]c2ccc(Nc3nc(NC4C5C=CC(C5)C4C(N)=O)c4nc[nH]c4n3)cc12 (racemic) [Compound 152, Racemic-(2-exo,3-exo-)-N6-(3-aminocarbonylbicyclo[2.2. 1]hept-5-en-2-yl)-N2-(3-aminocarbonyl-1H-indol-5-yl)-1H-purine-2,6-diamine]
IC50 [1]: > 10 µM | IC50 (Lck kinase): < 5 µM

CC(C)Oc1cccc(Nc2nc(NC3CC4CCC3C4)c3nc[nH]c3n2)c1 (racemic) [Compound 153, Racemic-(2-exo)-N6-(bicyclo[2.2.1]hept-2-yl)-N2-(3-isopropoxy)phenyl-1H-purine-2,6-diamine]
IC50 [1]: < 5 µM | IC50 (Lck kinase): < 5 µM | IC50 (Syk kinase): < 10 µM

COc1cccc(Nc2nc(NC3CC4CCC3C4)c3nc[nH]c3n2)c1 (racemic) [Compound 154, Racemic-(2-exo)-N6-(bicyclo[2.2.1]hept-2-yl)-N2-(3-methoxy)phenyl-1H-purine-2,6-diamine]
IC50 (kinase Lyn b): < 1000 nM

Cc1cccc(Nc2nc(NC3C4CCC(C4)C3C(N)=O)c3cc[nH]c3n2)c1 (racemic) [Compound 165, Racemic-(2-exo,3-exo)-N4-(3-aminocarbonylbicyclo[2.2. 1]hept-2-yl)-N2-(3-methyl)phenyl-1H-pyrrolo[2,3-d]pyrimidine-2,4-diamine]
IC50 (Lck kinase): < 5 µM

COc1cc(Nc2nc(NC3C4C=CC(C4)C3C(N)=O)c3scc(C)c3n2)cc(OC)c1OC (racemic) [Compound 238]
IC50 [1]: < 5 µM | IC50 (Axl kinase): > 10 µM | IC50 (Syk kinase): > 10 µM

Cc1csc2c(NC3C4C=CC(C4)C3C(N)=O)nc(Nc3ccc4[nH]ccc4c3)nc12 (racemic) [Compound 239, Racemic-(2-exo,3-aminocarbonylbicyclo [2.2.1]hept-5-en-2-yl)-N2-[1H-indol-5-yl]-thieno[3,2-d]pyrimidine-2,4-diamine]
IC50 [1]: < 5 µM | IC50 (Axl kinase): > 10 µM | IC50 (Syk kinase): < 5 µM

Cc1cc(Nc2ncc(F)c(NC3C4C=CC(C4)C3C(N)=O)n2)ccc1N1CCN(C)CC1 (racemic) [cis exo-exo racemate, N4-(3-aminocarbonylbicyclo [2.2.1]hept-5-en-2-yl)-5-fluoro-N2-[3-methyl-4-(4-methylpiperazin-1-yl)phenyl]-2,4-pyrimidinediamine]
potency of exo-exo racemate relative to endo-endo racemate (tumor cell lines; all cell lines tested): approximately twenty-fold | antiproliferative activity against tumor cell types (tumor cell lines): exhibit antiproliferative activity

Cc1cc(Nc2ncc(F)c(NC3C4C=CC(C4)C3C(N)=O)n2)ccc1N1CCN(C)CC1 [(1S,2S,3R,4R) diastereomer, N4-(3-aminocarbonylbicyclo [2.2.1]hept-5-en-2-yl)-5-fluoro-N2-[3-methyl-4-(4-methylpiperazin-1-yl)phenyl]-2,4-pyrimidinediamine]
IC50s against tumor cell lines (tumor cell lines; isolated stereoisomers): micromolar range

NC(=O)[C@@H]1[C@H](Nc2nc(Nc3cccc(F)c3)nc3[nH]cnc23)[C@H]2C=C[C@@H]1C2 [Compound 109, (1R,2R,3S,4S)-N6-(3-Aminocarbonylbicyclo[2.2. 1]hept-5-en-2-yl)-N2-(3-fluoro)phenyl-1H-purine-2,6-diamine]
IC50 (kinase Lyn b): < 1000 nM

NC(=O)[C@@H]1[C@H](Nc2nc(Nc3cccc(OCCN4CCOCC4)c3)nc3[nH]cnc23)[C@H]2C=C[C@@H]1C2 [Compound 112, (1R,2R,3S,4S)-N6-(3-Aminocarbonylbicyclo[2.2. 1]hept-5-en-2-yl)-N2-[3-(2-morpholin-4-yl-ethoxy)phenyl]-1H-purine-2,6-diamine]
IC50 (kinase Lyn b): < 1000 nM

NC(=O)[C@H]1[C@@H](Nc2nc(Nc3cccc(OCCN4CCOCC4)c3)nc3[nH]cnc23)[C@@H]2C=C[C@H]1C2 [Compound 113, (1S,2S,3R,4R)-N6-(3-Aminocarbonylbicyclo[2.2. 1]hept-5-en-2-yl)-N2-[3-(2-morpholin-4-yl-ethoxy)phenyl]-1H-purine-2,6-diamine]
IC50 (kinase Lyn b): < 1000 nM

NC(=O)[C@@H]1[C@H](Nc2nc(Nc3ccc(Cc4ccncc4)cc3)nc3[nH]cnc23)[C@H]2C=C[C@@H]1C2 [Compound 148, (1R,2R,3S,4S)-N6-(3-Aminocarbonylbicyclo[2.2. 1]hept-5-en-2-yl)-N2-[4-(4-pyridinylmethyl)phenyl]-1H-purine-2,6-diamine]
IC50 (kinase Lyn b): < 1000 nM

Cc1cc(Nc2ncc(F)c(NC3CCCC3C(N)=O)n2)ccc1N1CCN(C)CC1 [trans (1S,2S) diastereomer, N4-(2-aminocarbonylcyclopent-1-yl)-5-fluoro-N2-[4-(4-methylpiperazin-1-yl)-3-methylphenyl]-2,4-pyrimidinediamine]
antiproliferative activity against tumor cell types (tumor cell lines): relatively inactive | antiproliferative activity against tumor cell types (tumor cell lines; listed as trans(1S,2S)): relatively inactive

Source: patent US7601713B2, “Kinase inhibitors and their uses” (Rigel Pharmaceuticals, Inc., priority 2005, dated 2009)
